Assay results: PMC10622841, “Structural analysis of a bacterial UDP-sugar 2-epimerase reveals the active site architecture before and after catalysis” (The Journal of Biological Chemistry, 2023)

Legend:
[1] = target: T1, T. thermophilus 2-epimerase (Thermus thermophilus, UniProt Q72KY0, D98N); assay: X-ray crystallography; HPLC and mass spectrometry of copurified ligand; type: binding; settings: with UDP-GlcNAc3NAcA in the active site, pH 6.0-9.0
T1 construct: gene TT_C0285; full length, recombinant in E. coli Rosetta2(DE3); tag-free (rTEV-cut N-terminal His tag); homodimer, 82 kDa by gel filtration
T1 sequence (Q72KY0 entry or part of it D98N): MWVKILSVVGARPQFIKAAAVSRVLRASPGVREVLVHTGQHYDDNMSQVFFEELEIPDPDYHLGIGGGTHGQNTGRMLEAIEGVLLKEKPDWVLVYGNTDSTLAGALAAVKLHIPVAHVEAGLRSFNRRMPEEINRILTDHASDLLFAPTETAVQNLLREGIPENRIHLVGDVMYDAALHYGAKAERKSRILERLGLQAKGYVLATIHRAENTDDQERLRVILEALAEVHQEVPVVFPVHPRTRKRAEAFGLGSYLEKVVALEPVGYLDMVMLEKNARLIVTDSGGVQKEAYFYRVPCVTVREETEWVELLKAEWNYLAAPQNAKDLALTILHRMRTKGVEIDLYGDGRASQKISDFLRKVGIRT

[2] = target: T1, T. thermophilus 2-epimerase; assay: X-ray crystallography; type: binding; settings: active site; pH 6.0-9.0; C- or N-terminal His tag
[3] = target: T2, T. thermophilus 2-epimerase (Thermus thermophilus, UniProt Q72KY0); assay: discontinuous anion-exchange HPLC assay; type: biochemical; settings: allosteric activator; substrate UDP-GlcNAc3NAcA, pH 8.0, 37 °C, 44 μM enzyme
T2 construct: gene TT_C0285; full length, recombinant in E. coli Rosetta2(DE3); tag-free (rTEV-cut N-terminal His tag); homodimer, 82 kDa by gel filtration
T2 sequence (Q72KY0 1-365): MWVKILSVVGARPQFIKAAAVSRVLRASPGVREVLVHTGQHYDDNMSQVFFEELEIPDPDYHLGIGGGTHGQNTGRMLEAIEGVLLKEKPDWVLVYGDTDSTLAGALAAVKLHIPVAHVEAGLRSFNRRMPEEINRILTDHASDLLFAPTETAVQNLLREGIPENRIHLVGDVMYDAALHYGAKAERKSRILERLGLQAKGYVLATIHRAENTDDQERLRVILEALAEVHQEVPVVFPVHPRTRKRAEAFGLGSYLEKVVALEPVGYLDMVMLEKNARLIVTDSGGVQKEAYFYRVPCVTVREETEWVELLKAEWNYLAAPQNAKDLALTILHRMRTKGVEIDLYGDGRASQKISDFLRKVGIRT

[4] = target: T. thermophilus 2-epimerase, WT enzyme, tag-free (Thermus thermophilus HB27); assay: SEC; gel-filtration chromatography against standards (beta-amylase, acetyl CoA synthase, carbonic anhydrase, cytochrome c); conditions not given
[5] = target: T2, T. thermophilus 2-epimerase; assay: X-ray crystallography; type: binding; settings: active site; formed from UDP-GlcNAc3NAcA during crystallization; pH 5.0 and 9.0; C-terminal His tag

`O=c1ccn([C@@H]2O[C@H](COP(=O)(O)OP(=O)(O)O)[C@@H](O)[C@H]2O)c(=O)[nH]1` [UDP] was tested, and the “X-ray crystallography; HPLC and mass spectrometry of copurified ligand” value ([1]; allosteric (auxiliary) pocket) was “UDP-GlcNAc3NAcA was bound in the active site and UDP in the auxiliary binding pocket”.

`CC(=O)N[C@H]1[C@@H](OP(=O)(O)OP(=O)(O)OC[C@H]2O[C@@H](n3ccc(=O)[nH]c3=O)[C@H](O)[C@@H]2O)O[C@H](C(=O)O)[C@@H](O)[C@@H]1NC(C)=O` [UDP-GlcNAc3NAcA] was tested, and the X-ray crystallography [2] was “each subunit of the dimer contained both UDP-GlcNAc3NAcA in the active site and UDP-GlcNAc”.

In the case of `CC(=O)N[C@H]1[C@@H](OP(=O)(O)OP(=O)(O)OC[C@H]2O[C@@H](n3ccc(=O)[nH]c3=O)[C@H](O)[C@@H]2O)O[C@H](CO)[C@@H](O)[C@@H]1O` [UDP-GlcNAc], the “discontinuous anion-exchange HPLC assay” value [3] is reported as “the addition of UDP-GlcNAc was required for the reactions to proceed” and the “X-ray crystallography; HPLC and mass spectrometry of copurified ligand” value ([1]; allosteric pocket) is reported as “UDP-GlcNAc3NAcA in the active site and UDP-GlcNAc in the auxiliary binding pocket”.

Compound “T. thermophilus 2-epimerase, WT enzyme, tag-free” has a stoichiometry N [4] of 2.

`CC(=O)N[C@@H]1[C@@H](OP(=O)(O)OP(=O)(O)OC[C@H]2O[C@@H](n3ccc(=O)[nH]c3=O)[C@H](O)[C@@H]2O)O[C@H](C(=O)O)[C@@H](O)[C@@H]1NC(C)=O` [UDP-ManNAc3NAcA] was tested, and the X-ray crystallography [5] was “the product, namely UDP-ManNAc3NAcA, was observed in each subunit”.
